Calls of active or inactive are those of the source.
Assays:
[1] = biological target: Photoreceptor-specific nuclear receptor (Homo sapiens, UniProt Q9Y5X4); format: functional, cell-based;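 further: CHO-S cells with Gal4-NCOR and VP16-NR2E3 two-hybrid luciferase reporter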
[2] = biological target: Potassium voltage-gated channel subfamily KQT member 2 (Rattus norvegicus, UniProt O88943); experiment: KCNQ2 potassium channel inhibitors, dose response, cell-based, automated electrophysiology, set II, rat KCNQ2 (AID 588637); format: functional
[3] = biological target: Tyrosine-protein phosphatase non-receptor type 11 (Homo sapiens, UniProt Q06124); experiment: SHP2 phosphatase inhibition, dose response, selectivity assay for STEP inhibitor project, biochemical (AID 602367); format: functional; settings: read-out: IC50_Mean
[4] = biological target: Tyrosine-protein phosphatase non-receptor type 5 (Homo sapiens, UniProt P54829); experiment: STEP phosphatase inhibitors, confirmation, biochemical, fluorescence intensity, uHTS hits (AID 602372); format: functional; settings: read-out: IC50_Mean
[5] = biological target: Dual specificity protein phosphatase 3 (Homo sapiens, UniProt P51452); experiment: VHR phosphatase inhibition, dose response, selectivity assay for STEP inhibitor project, biochemical (AID 602374); format: functional; settings: read-out: IC50_Mean
Vero = experiment: Vero cell toxicity, dose response, cytotoxicity control, plate reader, cherry-pick samples (AID 687020); format: functional, cell-based; settings: Chlorocebus sabaeus
[6] = biological target: T1, Sentrin-specific protease 8 (Homo sapiens, UniProt Q96LD8); format: functional
T1 sequence (Q96LD8 whole entry): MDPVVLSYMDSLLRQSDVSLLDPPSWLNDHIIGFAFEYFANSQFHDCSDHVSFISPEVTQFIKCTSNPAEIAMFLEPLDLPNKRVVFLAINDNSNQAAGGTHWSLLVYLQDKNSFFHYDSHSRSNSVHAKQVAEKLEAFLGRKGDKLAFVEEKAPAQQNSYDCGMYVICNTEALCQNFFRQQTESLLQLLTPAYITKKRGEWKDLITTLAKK

[7] = biological target: T1, Sentrin-specific protease 8; format: functional; remark: listed apart in the source
[8] = NIH-3T3 fibroblast cytotoxicity, dose response, cytotoxicity control, cell-based, fluorescence, Alamar Blue, secondary assay (AID 2327); format: functional;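 further: NIH-3T3 mouse fibroblasts cultured with fluconazole at 8 µg/mL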
[9] = C. albicans growth with fluconazole, confirmation, fluorescence, retest (AID 2467); format: functional, cell-based
[10] = inhibitors of intracellular T. cruzi replication, confirmation, NIH3T3 host cells, beta-gal luminescence (AID 2044); format: functional, cell-based;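 further: intracellular parasites grown in NIH/3T3 mouse fibroblasts as host cells; luminescent beta-galactosidase reporter signal from transgenic T. cruzi replicating inside host cells; inhibitors lower the luminescence signal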
[11] = cytotoxicity toward NIH3T3 fibroblasts, dose response, counter-screen, cell-based, ATP luminescence, mouse fibroblasts (AID 2010); format: functional;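 further: cells exposed to compound for about 90 hours before reading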
[12] = inhibitors of HIV Env-driven cell fusion, dose response, cherry-pick (AID 652057); format: functional, cell-based
[13] = CEM21 lymphoblast cell cytotoxicity, dose response, cytotoxicity control for viral fusion inhibitor project, CellTiter-Glo luminescence, cherry-picked (AID 652042); format: functional, cell-based;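 further: potency for signal decrease meaning cytotoxicity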
[14] = ZM109 Env clade C HIV-1 fusion inhibitors, dose response, HeLa effector, CEM target cells, luciferase, cherry-pick (AID 652058); format: functional, cell-based
[15] = off-target signal loss in HeLa-CEM21 co-culture – HeLa F-luc CTL cells, cherry-picked, counter-screen for HIV-1 Env fusion inhibitor project, dose response (AID 652040); format: functional, cell-based;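 further: potency for signal decrease marking cytotoxic or nonspecific inhibition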
[16] = inhibitors of clade B AD8 Env fusion, dose response, cell-based, cherry-pick (AID 652062); format: functional;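 further: luciferase signal from cell-cell fusion driven by HIV-1 clade B AD8 Env; potency is for inhibitors of fusion seen as a drop in luminescence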

Sequence of Dual specificity protein phosphatase 3 (P51452 whole entry): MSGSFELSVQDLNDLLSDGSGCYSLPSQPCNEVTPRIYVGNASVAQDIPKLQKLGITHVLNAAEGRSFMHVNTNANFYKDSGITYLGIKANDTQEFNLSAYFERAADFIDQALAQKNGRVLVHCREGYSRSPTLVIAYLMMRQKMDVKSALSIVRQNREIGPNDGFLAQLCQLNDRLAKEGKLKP
Sequence of Tyrosine-protein phosphatase non-receptor type 5 (P54829 whole entry): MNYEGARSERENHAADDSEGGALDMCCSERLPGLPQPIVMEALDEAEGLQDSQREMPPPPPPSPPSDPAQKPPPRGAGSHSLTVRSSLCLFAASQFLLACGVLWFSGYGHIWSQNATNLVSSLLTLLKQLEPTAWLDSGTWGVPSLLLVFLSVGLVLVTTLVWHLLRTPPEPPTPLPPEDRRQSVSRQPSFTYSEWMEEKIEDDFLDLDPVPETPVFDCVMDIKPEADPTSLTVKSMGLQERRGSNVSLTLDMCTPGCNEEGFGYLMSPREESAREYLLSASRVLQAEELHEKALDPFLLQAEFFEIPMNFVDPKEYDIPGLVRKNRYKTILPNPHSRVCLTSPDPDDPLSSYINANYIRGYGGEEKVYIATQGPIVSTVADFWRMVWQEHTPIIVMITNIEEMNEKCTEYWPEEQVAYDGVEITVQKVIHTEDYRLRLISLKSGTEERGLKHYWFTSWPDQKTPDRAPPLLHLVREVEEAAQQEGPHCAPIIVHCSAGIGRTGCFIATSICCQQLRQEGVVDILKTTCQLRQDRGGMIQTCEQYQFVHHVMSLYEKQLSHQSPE
Sequence of Tyrosine-protein phosphatase non-receptor type 11 (Q06124 whole entry): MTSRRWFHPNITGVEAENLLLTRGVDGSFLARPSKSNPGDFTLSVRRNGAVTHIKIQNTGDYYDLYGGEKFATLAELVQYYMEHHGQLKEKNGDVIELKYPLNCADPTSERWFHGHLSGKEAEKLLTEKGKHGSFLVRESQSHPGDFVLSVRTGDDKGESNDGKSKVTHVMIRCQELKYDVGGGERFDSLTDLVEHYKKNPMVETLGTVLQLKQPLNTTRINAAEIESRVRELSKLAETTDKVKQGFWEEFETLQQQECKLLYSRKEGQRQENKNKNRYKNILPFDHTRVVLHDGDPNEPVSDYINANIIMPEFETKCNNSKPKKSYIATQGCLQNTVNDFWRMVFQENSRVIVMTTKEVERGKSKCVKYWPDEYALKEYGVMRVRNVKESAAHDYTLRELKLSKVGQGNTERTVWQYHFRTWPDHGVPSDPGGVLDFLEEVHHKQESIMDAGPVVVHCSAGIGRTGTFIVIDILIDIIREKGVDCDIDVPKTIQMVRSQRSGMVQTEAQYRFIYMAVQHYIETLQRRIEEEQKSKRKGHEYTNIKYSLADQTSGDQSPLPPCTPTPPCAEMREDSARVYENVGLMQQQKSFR
Sequence of Potassium voltage-gated channel subfamily KQT member 2 (O88943 whole entry): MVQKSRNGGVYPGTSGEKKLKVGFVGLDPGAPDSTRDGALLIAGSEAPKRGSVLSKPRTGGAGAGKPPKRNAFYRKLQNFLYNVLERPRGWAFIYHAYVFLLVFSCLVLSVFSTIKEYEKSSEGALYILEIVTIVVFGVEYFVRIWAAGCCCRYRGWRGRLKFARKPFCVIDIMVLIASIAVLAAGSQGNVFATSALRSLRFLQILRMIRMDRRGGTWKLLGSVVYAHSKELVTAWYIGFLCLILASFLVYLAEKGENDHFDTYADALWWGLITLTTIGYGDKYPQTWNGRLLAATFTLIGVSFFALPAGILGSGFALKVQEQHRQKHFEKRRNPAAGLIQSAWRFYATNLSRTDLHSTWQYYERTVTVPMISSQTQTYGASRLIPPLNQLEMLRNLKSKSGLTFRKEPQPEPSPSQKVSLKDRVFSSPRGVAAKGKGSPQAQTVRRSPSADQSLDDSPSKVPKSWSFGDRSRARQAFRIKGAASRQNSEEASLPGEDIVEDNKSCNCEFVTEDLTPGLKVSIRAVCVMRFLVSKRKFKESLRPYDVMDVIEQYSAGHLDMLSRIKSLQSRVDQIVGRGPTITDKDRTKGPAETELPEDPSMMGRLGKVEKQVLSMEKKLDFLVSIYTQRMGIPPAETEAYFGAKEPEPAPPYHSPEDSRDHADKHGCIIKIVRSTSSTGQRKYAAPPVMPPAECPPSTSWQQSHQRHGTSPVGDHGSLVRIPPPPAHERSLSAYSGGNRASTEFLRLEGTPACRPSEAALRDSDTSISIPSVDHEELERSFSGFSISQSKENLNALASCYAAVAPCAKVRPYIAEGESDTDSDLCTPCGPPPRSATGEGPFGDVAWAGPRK
Sequence of Photoreceptor-specific nuclear receptor (Q9Y5X4 whole entry, the tested form may be a part): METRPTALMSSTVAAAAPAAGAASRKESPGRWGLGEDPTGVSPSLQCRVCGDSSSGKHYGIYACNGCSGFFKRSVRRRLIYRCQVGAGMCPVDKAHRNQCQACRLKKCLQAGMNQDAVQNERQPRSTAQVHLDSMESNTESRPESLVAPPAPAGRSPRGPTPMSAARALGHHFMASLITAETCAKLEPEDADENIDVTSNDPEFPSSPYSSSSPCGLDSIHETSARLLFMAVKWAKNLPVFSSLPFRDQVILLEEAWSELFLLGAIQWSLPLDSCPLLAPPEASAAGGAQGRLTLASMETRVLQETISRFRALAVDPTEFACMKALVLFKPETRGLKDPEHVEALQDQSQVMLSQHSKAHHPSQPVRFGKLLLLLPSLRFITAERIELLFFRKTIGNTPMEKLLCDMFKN

Compound: CCOC(=O)N1CCN(C(=O)c2ccc(S(=O)(=O)Nc3ccc(C)cc3)cc2)CC1
- IC50 [1]: 5.96 µM (active)

Compound: CCc1nc2ccc(F)cc2c(C(=O)NC2CCCCC2C)c1C (configuration not stated)
- IC50 [2]: 636 nM (active)

Compound: O=C(NC1CCCCCC1)C(=S)NC1CCCCC1
- IC50 [3]: 9.88 µM (active)
- IC50 [4]: 56.9 µM (inactive)
- IC50 [5]: 3.07 µM (active)

Compound: COc1ccc(C)cc1N(CC(=O)Nc1ccc(S(=O)(=O)N2CCOCC2)cc1)S(C)(=O)=O
- AC50 (Vero): 29.5 µM (active)

Compound: COC(=O)CCCC1=CC2=CC(=O)C(C)(OC(=O)c3cccs3)C(=O)C2=CN1C1CCCC1 (configuration not stated)
- IC50 [6]: 7.97 µM (active)
- IC50 [7]: 5.99 µM (active)

Compound: O=C(COc1ccc(Cl)cc1Cl)N1CCCN(C(=O)COc2ccc(Cl)cc2Cl)CC1
- EC50 [8]: > 150 µM (inactive)
- EC50 [9]: 2.18 µM (active)
- EC50 [10]: 1.39 µM (active)
- EC50 [11]: > 30 µM (not active)
- AC50 [12]: 3.52 µM (active)
- AC50 [13]: 68.3 µM (active)
- AC50 [14]: 3.44 µM (active)
- AC50 [15]: 5.48 µM (active)
- AC50 [16]: 3.24 µM (active)

— ChEMBL document CHEMBL1201862, “PubChem BioAssay data set” (2004)
